Results published in patent publication US5627215A, “Unsaturate amino compounds for use as anticancer and antiprotozoic agent” (Ciba-Geigy Corporation, priority 1993, dated 1997).
Structures can show the parent of a compound that is named as a salt. Where two headings read alike, the source gives them in different places.

Tests used:
[1] = test system: mouse ascites L1210 leukaemia cells; assay: Levels of putrescine, spermidine and spermine (polyamine pools) in mouse ascites L1210 leukemia cells (method of Porter et al., HPLC); assay type: cell-based; conditions: 48 h incubation; for activity at 10 µM: test compound 10 μM; for activity at 5 µM: test compound 5 μM
Description: Mouse ascites L1210 leukaemia cells are cultured (at 37° C.) in RPMI-1640 medium (which contains, per litre, 100 mg of Ca(NO3)2,400 mg of KCl, 100 mg of MgSO4.7H2 O, 6000 mg of NaCl, 2000 mg of NaHCO3, 801 mg of Na2 HPO4, 242 mg of L-Arg.HCl, 50 mg of L-Ash, 20 mg of L-Asp, 50 mg of L-Cys, 300 mg of L-Gln, 20 mg of L-Glu, 10 mg of Gly, 18.2 mg of L-His.HCl.H2 O, 20 mg of L-hydroxyproline, 50 mg of L-Leu, 40 mg of L-Lys.HCl, 15 mg of L-Met, 15 mg of L-Phe, 20 mg of L-Pro, 30 mg of L-Ser, 20 mg of L-Thr, 5 mg of L-Trp, 20 mg of L-Tyr, 20 mg of L-Vat, 1 mg of […], 0.2 mg of biotin, 3 mg of choline chloride, 1 mg of folic acid, 35 mg of i-inositol, 1 mg of nicotinamide, 0.25 mg of pantothenoic acid calcium salt, 1 mg of pyridoxine.HCl, 0.2 mg of riboflavin, 1 mg of thiamine. HCl, 0.005 mg of vitamin B12, 2000 mg of glucose, 1 mg of glutathione, and 5 mg of phenol red), which also contains 2 % 4-(2-hydroxyethyl)-1-piperazineethanesulfonic acid/3-(N-morpholino)propanesulfonic acid, 1 mM aminoguanidine and 10% NuSerum (Collaborative Research Inc., Lexington, Mass.). The cells are cultured under a humid 5% carbon dioxide atmosphere at 37° C. either in glass culture tubes (2 ml) or in 25 or 75 cm^2 tissue culture bottles in a total volume of 15 or 50 ml, respectively. The cultures are treated with the compounds of formula I or with 0.1 mM spermidine (controls: without corresponding compounds) during the logarithmic growth phase (0.5 to 1×10^5 cells/ml). The number of cells is measured by electronic particle counting (Model ZF Coulter Counter, Coulter Electronics, Hialeah, Fla.) and confirmed from time to time by haemocytometer measurements. The viability of the cells is measured by trypan blue exclusion measurement (0.5% in unbuffered 0.9% sodium chloride solution ).
For polyamine determination, the cell samples are washed twice in cold PBS (="Phosphate Buffered Saline"--contains per litre 8000 mg of NaCl, 200 mg of KCl, 1150 mg of Na2 HPO4.2H2 O, 200 mg of KH2 PO4, 100 mg of MgCl2.H2 O, 200 mg of MgSO4.H2 O and CaCl2; pH 7.2), and an aliquot of 10^7 cells is removed for polyamine determination. The cells are formed into a pellet, and the PBS supernatant is removed carefully using a cotton wool swab. The pellet containing the cells is then maintained together with 0.5 ml of 0.6M perchloric acid for 30 minutes at 4° C. and is then centrifuged for 3 minutes at 12,000 g using a microcentrifuge. The supernatant is frozen at -20° C. until the HPLC analysis. For that purpose, the polyamines in a 50 μl sample of the perchloric acid extract are separated over an HPLC system using a glass "Microbore Column" having a diameter of 2.8 mm, which is packed to a height of 2 cm with TLC-4A-cationexchange resin (Durrum Chemical Corp., Palo Alto, Calif.). The column temperature is maintained at 65° C. by means of a water bath with circulating water. The column is eluted at a flow rate of 16 ml/h with an initial column pressure of 34.45 bar, which decreases as the ionic strength of the elution buffer increases. Buffer 1 (which contains 0.2M boric acid, 0.5M NaCl, 0.03% Brij 35 (polyoxyethylene monolauryl ether, the number of ethyleneoxy radicals is approximately 23; Pierce Chemical Co., Rockford, Ill.) and 0.0001% octanoic acid, pH adjusted to 6.0 with saturated KOH) is flushed through the column for 4 minutes. Buffer 2 (which contains 0.2M boric acid, 2.15M NaCl, 0.03% Brij 35 and 0.0001% octanoic acid, pH adjusted as above) is pumped through for 6 minutes. Buffer 3 (which contains 0.2M boric acid, 2.9M NaCl and 0.0001% octanoic acid (pH adjusted as above)) is likewise applied for 6 minutes. The column is re-equilibrated for 10 minutes with buffer 1, before the next sample is introduced. The column eluate is derivatised with 0.05% o-phthalaldehyde (Durrum Chemical Corp.) in 0.4M borate buffer (pH 10.4)/1 mM 2-mercaptoethanol/0.09% Brij 35. The flow rate for o-phthalaldehyde is 8 ml/h. […]

[2] = test system: human T24 bladder carcinoma cells; assay: Inhibition of growth of human T24 bladder carcinoma cells (methylene blue staining, 5 days); assay type: cell-based; conditions: 120 h, Eagle's minimal essential medium, 5 days incubation
Description: The carcinoma cells (1000-1500) are transferred to 96-well microlitre plates and are incubated overnight under the said conditions. The test compound is added in serial dilutions on day 1. The plates are incubated under the said conditions for 5 days. During that period, control cultures undergo at least 4 cell divisions. After incubation, the cells are fixed with 3.3% (weight/volume=w/v) aqueous glutaraldehyde solution, washed with water and stained with 0.05% (w/v) aqueous methylene blue solution. After washing, the dye is eluted with 3% (w/v) aqueous hydrochloric acid. The optical density (OD) per well, which is directly proportional to the number of cells, is then measured by means of a photometer (Titertek multiskan) at 665 nm. The IC50 values are calculated by means of a computer system using the formula [formula] The IC50 value is defined as the concentration of active ingredient at which the number of cells per well at the end of the incubation period is only 50% of the number of cells in the control cultures. Inhibition of growth of human T24 bladder carcinoma cells: Using the method for inhibition of growth of human T24 bladder carcinoma cells om Eagle's minimal essential medium (see above), the following test results are obtained (given as IC50 =concentration of the active ingredient at which the number of cells per well at the end of the incubation period is only 50% of the number of cells in the control cultures): […]

[3] = read-out: level of putrescine (PU), % of the respective control
[4] = read-out: level of spermidine (SPD), % of the respective control
[5] = read-out: level of spermine (SPM), % of the respective control

IC50 [2] [nM] | Structure (SMILES) | activity at 10 µM [1, 3] [%] | activity at 10 µM [1, 4] [%] | activity at 10 µM [1, 5] [%] | activity at 5 µM [1, 3] [%] | activity at 5 µM [1, 4] [%] | activity at 5 µM [1, 5] [%]
640 | CCCNCCCNC/C=C/CNCCCNCCC [Example 1, (E)-1,14Di-propyl-1,5,10,14-tetraazatetradec-7-ene tetrahydrochloride] | 9.4 | 12 | 67 | – | – | –
600 | C=CCNCCCNC/C=C/CNCCCNCC=C [Example 2, (E)-1,14-Di-allyl-1,5,10,14-tetraazatetradec-7-ene tetrahydrochloride] | 16 | 3.1 | 36 | – | – | –
8200 | CCCCNCCCNC/C=C/CNCCCNCCCC [Example 3, (E)-1,14-Di-butyl-1,5,10,14-tetraazatetradec-7-ene tetrahydrochloride] | – | – | – | – | – | –
– | CCNCCCNC/C=C/CNCCCNCC [Example 5, (E)-1,14-Di-ethyl-1,5,10,14-tetraazatetradec-7-ene tetrahydrochloride] | – | – | – | 4.1 | 2.1 | 30
3000 | C=CCNCCCNC/C=C/CNCCCNCC [Example 6, (E)-1-Ally-14-ethyl-1,5,10,14-tetraazatetradec-7-ene tetrahydrochloride] | 4.1 | 2.1 | 12 | – | – | –
550 | CCCCNCCCNC/C=C/CNCCCNCC [Example 8, (E)-1-Butyl-14-ethyl-1,5,10,14-tetraazatetradec-7-ene tetrahydrochloride] | 4.8 | 0.2 | 4 | – | – | –
1100 | CCCNCCCNC/C=C/CNCCCNCC [Example 9, (E)-1-Ethyl-14-propyl-1,5,10,14-tetraazatetradec-7-ene tetrahydrochloride] | 6.9 | 2 | 19 | – | – | –
2140 | C=CCNCCCNC/C=C/CNCCCNCCC [Example 13, (E)-1-Allyl-14-propyl-1,5,10,14-tetraazatetradec-7-ene tetrahydrochloride] | 0 | 1.3 | 25 | – | – | –
920 | C(=C\CNCCCNCC1CC1)/CNCCCNCC1CC1 [Example 16, (E)-1,14-Di-cyclopropylmethyl-1,5,10,14-tetraazatetradec-7-ene tetrahydrochloride] | 12 | 24 | 62 | – | – | –
